Laboratory results: ChEMBL document CHEMBL5725933, “Amino compounds for treatment of complement mediated disorders” (2017)
pIC50: −log10 of the molar value.

Target: Complement factor D (Homo sapiens, UniProt P00746)
Assay: Factor D Assay: Human factor D (purified from human serum, Complement Technology, Inc.) at 80 nM final concentration is incubated with test compound at various concentrations for 5 minutes at room temperature in 50 mM Tris, 1M NaCl, pH 7.5. A synthetic substrate Z-L-Lys-SBz1 and DTNB (Ellman's reagent) are added to final concentrations of 100 μM each. The increase in color is recorded at OD405 nm in a microplate in kinetic mode over 30 minutes with 30 second time points in a spectrofluorimeter. IC50 values are calculated by non-linear regression from the percentage of inhibition of complement factor D activity as a function of test compound concentration.

Complement factor D, sequence (P00746 whole entry): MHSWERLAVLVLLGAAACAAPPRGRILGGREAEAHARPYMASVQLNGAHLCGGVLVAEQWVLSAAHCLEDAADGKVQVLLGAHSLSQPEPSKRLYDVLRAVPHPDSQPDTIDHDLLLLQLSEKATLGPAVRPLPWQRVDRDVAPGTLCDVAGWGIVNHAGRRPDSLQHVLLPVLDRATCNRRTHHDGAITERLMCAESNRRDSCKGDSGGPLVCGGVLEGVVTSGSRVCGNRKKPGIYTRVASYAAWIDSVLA

Compound: CC(=O)c1cn(CC(=O)N2C[C@H](F)C[C@H]2C(=O)Nc2cccc(Br)n2)c2ccc(Nc3cncc(F)c3)cc12
- pIC50: > 6.00
